The text below walks through data of patent publication US20200278355A1, “CONJUGATED PROTEINS AND USES THEREOF” (THE SCRIPPS RESEARCH INSTITUTE, priority 2017, published 2020).

What all share (type): cell-based
Details in all cases: 20 μM

One experiment addresses T1, NR0B1 (Homo sapiens, UniProt P51843).
T1 construct: H460 cells or H460 cells expressing luciferase in a 10 cm plate were incubated with indicated compounds; endogenous in cells; host or cells: H460 (NSCLC, KEAP1-mutant)
T1 sequence (P51843 1-470): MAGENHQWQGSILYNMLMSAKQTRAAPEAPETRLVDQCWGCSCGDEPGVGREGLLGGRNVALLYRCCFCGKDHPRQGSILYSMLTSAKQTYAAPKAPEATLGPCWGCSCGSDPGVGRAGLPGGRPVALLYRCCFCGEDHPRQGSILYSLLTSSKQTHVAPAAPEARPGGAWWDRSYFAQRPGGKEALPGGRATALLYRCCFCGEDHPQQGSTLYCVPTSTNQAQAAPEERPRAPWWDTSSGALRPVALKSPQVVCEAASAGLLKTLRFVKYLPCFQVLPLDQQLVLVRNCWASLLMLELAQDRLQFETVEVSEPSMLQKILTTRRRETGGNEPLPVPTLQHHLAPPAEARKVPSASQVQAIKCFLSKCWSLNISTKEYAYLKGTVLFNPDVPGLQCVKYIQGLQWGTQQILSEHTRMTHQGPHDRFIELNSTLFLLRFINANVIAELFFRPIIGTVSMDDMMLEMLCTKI
The experiment is described as follows: ABPP-SILAC BPK-29yne competition in H460 cells: NR0B1. On the procedure: (§1) Isotopically labeled H460 cell lines were generated as described above. Light and heavy cells were treated with compounds (20 μM) or DMSO, respectively, for 3 h, followed by labeling with the BPK-29yne (5 μM) for 30 min. Cells were washed once ice-cold PBS and lysed in 1% Triton 100-X dissolved in PBS with protease inhibitors (Sigma) by sonication. Lysate was adjusted to 1.5 mg ml^−1 in 500 μL. Samples were conjugated by CuAAC to Biotin-PEG4-azide (5 μL of 10 mM stocks in DMSO, final concentration=100 μM). CuAAC “click” mix contained TCEP, TBTA ligand and CuSO4 as detailed for isoTOP-ABPP sample preparation. Samples were further processed as detailed in: isoTOP-ABPP streptavidin enrichment and isoTOP-ABPP trypsin TEV digestion with the following exception: after overnight incubation at 37° C. with trypsin, tryptic digests were separated from the beads with Micro Bio-Spin columns (Bio-Rad) by centrifugation (1,000×g, 1 min). Beads were rinsed once with water (200 μL) and combined with tryptic digests. […]
(§2) The MS2 spectra data were extracted and searched using RAW Convertor and ProLuCID algorithm as described in isoTOP-ABPP peptide and protein quantification. […] Ratios of heavy/light (DMSO/test compound) peaks were calculated using in-house CIMAGE software. […] The mean R values and standard deviation for multiple biological experiments were calculated from the average ratios from each replicate. […]

The next experiment addresses T2, NUDT8 (Homo sapiens, UniProt Q8WV74).
T2 construct: H460 cells or H460 cells expressing luciferase in a 10 cm plate were incubated with indicated compounds; endogenous in cells; host or cells: H460
The experiment in a line: ABPP-SILAC BPK-29yne competition in H460 cells: NUDT8. On the procedure:
as §1, §2

The target of a further experiment is T3, SCP2 (Homo sapiens, UniProt P22307).
T3 construct: H460 cells or H460 cells expressing luciferase in a 10 cm plate were incubated with indicated compounds; endogenous in cells; host or cells: H460
T3 sequence (P22307 whole entry): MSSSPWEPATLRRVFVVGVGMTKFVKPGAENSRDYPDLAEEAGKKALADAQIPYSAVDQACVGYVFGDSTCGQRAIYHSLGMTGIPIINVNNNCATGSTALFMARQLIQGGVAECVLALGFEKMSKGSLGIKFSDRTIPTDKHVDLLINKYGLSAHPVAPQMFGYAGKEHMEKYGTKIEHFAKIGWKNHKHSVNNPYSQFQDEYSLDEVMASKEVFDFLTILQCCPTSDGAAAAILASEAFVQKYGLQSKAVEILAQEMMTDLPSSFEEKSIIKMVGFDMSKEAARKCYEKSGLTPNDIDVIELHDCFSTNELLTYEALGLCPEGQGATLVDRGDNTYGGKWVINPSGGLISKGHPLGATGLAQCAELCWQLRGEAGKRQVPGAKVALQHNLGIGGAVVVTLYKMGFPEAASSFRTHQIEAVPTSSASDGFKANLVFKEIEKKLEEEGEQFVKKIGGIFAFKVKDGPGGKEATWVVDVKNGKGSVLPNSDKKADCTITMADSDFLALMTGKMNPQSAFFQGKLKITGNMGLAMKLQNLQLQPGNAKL
The experiment is described as follows: ABPP-SILAC BPK-29yne competition in H460 cells: SCP2. As for the experimental part:
as §1, §2

The next experiment has as its target T4, ALDH1A1 (Homo sapiens, UniProt P00352).
T4 construct: Isotopically labeled H460 cell lines were generated as described above; endogenous in cells; host or cells: H460 (SILAC-labelled)
The experiment in a line: ABPP-SILAC BPK-29yne competition in H460 cells: ALDH1A1. On the procedure:
as §1, §2

A further experiment addresses T5, FAM213A (Homo sapiens, UniProt Q9BRX8).
T5 construct: Isotopically labeled H460 cell lines were generated as described above; endogenous in cells; host or cells: H460 (SILAC-labelled)
The experiment in a line: ABPP-SILAC BPK-29yne competition in H460 cells: FAM213A. As for the experimental part:
as §1, §2

The target in another experiment is T6, GSTO1 (Homo sapiens, UniProt P78417).
T6 construct: Isotopically labeled H460 cell lines were generated as described above; endogenous in cells; host or cells: H460 (SILAC-labelled)
T6 sequence (P78417 whole entry): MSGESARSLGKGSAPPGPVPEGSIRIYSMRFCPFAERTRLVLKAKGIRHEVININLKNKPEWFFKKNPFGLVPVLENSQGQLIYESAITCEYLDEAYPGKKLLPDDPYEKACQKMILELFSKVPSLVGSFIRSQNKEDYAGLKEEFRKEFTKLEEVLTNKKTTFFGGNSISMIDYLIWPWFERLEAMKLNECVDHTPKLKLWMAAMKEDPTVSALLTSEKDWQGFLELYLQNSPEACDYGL
The experiment in a line: ABPP-SILAC BPK-29yne competition in H460 cells: GSTO1. As for the experimental part: as §1, §2

The next experiment concerns the target T7, NT5DC1 (Homo sapiens, UniProt Q5TFE4).
T7 construct: Isotopically labeled H460 cell lines were generated as described above; endogenous in cells; host or cells: H460 (SILAC-labelled)
The experiment in a line: ABPP-SILAC BPK-29yne competition in H460 cells: NT5DC1. As for the experimental part:
as §1, §2

T7 sequence (Q5TFE4 whole entry): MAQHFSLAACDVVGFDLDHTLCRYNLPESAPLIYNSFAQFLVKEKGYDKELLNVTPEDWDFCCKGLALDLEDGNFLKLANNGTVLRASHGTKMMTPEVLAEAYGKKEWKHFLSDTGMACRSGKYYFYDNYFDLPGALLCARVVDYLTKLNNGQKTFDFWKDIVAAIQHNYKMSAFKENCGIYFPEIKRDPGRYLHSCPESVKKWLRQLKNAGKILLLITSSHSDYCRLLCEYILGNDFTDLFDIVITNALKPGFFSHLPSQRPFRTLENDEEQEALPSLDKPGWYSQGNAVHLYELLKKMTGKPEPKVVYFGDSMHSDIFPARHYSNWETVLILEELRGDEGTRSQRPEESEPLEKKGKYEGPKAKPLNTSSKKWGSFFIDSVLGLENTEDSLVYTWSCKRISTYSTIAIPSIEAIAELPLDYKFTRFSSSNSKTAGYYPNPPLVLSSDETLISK
T5 sequence (Q9BRX8 whole entry): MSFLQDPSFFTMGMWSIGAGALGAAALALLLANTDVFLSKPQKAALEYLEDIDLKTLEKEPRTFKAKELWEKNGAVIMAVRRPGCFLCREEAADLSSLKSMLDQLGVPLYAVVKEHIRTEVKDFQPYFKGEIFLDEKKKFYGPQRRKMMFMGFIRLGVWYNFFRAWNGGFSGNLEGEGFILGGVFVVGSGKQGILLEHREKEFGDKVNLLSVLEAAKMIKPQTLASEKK
T2 sequence (Q8WV74 whole entry): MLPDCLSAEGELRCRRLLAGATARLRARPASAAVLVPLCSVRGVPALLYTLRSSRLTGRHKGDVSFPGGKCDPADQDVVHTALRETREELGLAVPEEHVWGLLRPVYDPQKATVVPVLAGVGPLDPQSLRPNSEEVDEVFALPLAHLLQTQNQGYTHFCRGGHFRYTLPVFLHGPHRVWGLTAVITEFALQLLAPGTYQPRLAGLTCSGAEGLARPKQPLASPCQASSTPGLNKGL
T4 sequence (P00352 whole entry): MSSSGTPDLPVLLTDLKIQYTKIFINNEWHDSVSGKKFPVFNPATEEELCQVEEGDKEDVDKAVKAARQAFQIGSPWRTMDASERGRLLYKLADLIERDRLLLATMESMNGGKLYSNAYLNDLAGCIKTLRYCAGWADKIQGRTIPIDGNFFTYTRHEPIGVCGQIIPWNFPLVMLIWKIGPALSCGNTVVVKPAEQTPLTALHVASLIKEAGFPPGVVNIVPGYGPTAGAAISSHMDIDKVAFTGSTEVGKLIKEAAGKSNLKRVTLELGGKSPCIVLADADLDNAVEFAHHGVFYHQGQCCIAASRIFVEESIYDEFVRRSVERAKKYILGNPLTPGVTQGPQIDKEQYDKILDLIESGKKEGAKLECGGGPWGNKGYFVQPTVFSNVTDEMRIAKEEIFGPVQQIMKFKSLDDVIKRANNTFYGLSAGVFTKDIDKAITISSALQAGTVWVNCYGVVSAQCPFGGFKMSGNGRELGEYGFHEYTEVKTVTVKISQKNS

As to `O=C(c1ccc(N2CCOCC2)cc1)N1CCCC(N(Cc2ccccc2)C(=O)CCl)CC1` (stereo not shown) [BPK-29, N-benzyl-2-chloro-N-(1-(4-morpholinobenzoyl)azepan-4-yl)acetamide], the “BPK-29-competed BPK-29yne analysis” value at NR0B1, at NUDT8, on SCP2, on ALDH1A1, on FAM213A and at GSTO1 was “Yes (Competed defined as showing R value ≥ 2.5 at 20 μM of test compound)” in each case. For the same molecule, the “BPK-29-competed BPK-29yne analysis” value on NT5DC1 is “Yes (Competed defined as showing R value ≥ 2.5 at 20 μM of test compound)”.
